Experimental data reported in PMC11314561, “Design and Synthesis of Novel Aminoindazole-pyrrolo[2,3-b]pyridine Inhibitors of IKKα That Selectively Perturb Cellular Non-Canonical NF-κB Signalling” (Molecules, 2024).

Assays:
Assay in all cases: kinase panel
Type in all cases: biochemical
AMPKα1(h) = AMPKα1(h) (Homo sapiens, UniProt Q13131)
Procedure, shortened: (§1)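 Percentage inhibition was recorded for each compound against a broad kinase panel of 231 enzymes. Because of its close structural resemblance to another analogue, one compound was screened against 98 chosen kinases.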

CDK7/cyclinH/MAT1(h) = CDK7/cyclinH/MAT1(h) (Homo sapiens, UniProt P50613)
Procedure, shortened: as §1

DYRK2(h) = biological target: T1, DYRK2(h) (Homo sapiens, UniProt Q92630)
T1 sequence (Q92630 1-601): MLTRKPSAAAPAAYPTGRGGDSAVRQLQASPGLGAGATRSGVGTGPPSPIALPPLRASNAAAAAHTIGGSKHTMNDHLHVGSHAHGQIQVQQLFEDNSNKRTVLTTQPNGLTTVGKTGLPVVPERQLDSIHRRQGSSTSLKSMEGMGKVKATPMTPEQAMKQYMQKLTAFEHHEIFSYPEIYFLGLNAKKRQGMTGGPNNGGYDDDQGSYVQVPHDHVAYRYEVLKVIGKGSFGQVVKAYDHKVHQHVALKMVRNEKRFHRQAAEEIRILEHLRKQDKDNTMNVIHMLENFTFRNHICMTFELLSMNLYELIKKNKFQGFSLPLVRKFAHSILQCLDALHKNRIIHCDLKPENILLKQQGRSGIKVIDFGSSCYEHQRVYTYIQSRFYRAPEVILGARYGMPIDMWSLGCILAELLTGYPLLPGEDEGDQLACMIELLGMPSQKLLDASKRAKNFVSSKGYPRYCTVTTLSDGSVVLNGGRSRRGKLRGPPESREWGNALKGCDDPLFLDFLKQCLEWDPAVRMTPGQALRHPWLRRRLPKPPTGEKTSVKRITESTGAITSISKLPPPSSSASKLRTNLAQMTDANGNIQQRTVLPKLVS
Procedure, shortened: as §1

FGFR1(h) = FGFR1(h) (Homo sapiens, UniProt P11362)
Procedure, shortened: as §1

Flt1(h) = Flt1(h) (Homo sapiens, UniProt P17948)
Procedure, shortened: as §1

GSK3α(h) = GSK3α(h) (Homo sapiens, UniProt P49840)
Procedure, shortened: as §1

MARK1(h) = MARK1(h) (Homo sapiens, UniProt Q9P0L2)
Procedure, shortened: as §1

MINK(h) = MINK(h) (Homo sapiens, UniProt Q8N4C8)
Procedure, shortened: as §1

PDGFRβ(h) = PDGFRβ(h) (Homo sapiens, UniProt P09619)
Procedure, shortened: as §1

PDK1(h) = biological target: T2, PDK1(h) (Homo sapiens, UniProt O15530)
T2 sequence (O15530 1-556): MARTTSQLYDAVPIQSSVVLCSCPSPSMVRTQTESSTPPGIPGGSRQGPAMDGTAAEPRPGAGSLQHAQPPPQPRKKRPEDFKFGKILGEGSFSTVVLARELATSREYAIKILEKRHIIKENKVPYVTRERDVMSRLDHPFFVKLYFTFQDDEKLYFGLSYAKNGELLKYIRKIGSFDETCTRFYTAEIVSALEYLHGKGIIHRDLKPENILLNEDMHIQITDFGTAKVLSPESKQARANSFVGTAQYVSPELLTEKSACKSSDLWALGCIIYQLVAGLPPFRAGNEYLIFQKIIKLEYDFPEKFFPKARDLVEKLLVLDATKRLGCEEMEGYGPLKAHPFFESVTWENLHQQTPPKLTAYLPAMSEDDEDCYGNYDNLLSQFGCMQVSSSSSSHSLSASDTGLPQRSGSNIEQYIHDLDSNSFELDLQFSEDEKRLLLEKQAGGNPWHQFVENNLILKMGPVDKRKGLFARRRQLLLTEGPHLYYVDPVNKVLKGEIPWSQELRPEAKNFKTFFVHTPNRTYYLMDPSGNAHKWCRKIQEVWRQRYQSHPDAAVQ
Procedure, shortened: as §1

TAK1(h) = biological target: T3, TAK1(h) (Homo sapiens, UniProt O43318)
T3 sequence (O43318 1-303 limits assumed): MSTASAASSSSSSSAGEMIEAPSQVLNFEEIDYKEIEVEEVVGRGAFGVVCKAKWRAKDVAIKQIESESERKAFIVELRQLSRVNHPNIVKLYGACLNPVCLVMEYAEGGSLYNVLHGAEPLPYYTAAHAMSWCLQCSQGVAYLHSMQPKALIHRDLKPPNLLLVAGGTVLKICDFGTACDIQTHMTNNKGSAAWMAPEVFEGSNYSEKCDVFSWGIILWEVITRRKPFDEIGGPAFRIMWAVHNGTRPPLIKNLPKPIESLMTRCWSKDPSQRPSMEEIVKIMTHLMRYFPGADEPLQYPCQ
Procedure, shortened: as §1

TrkB(h) = TrkB(h) (Homo sapiens, UniProt Q16620)
Procedure, shortened: as §1

ZAP-70(h) = biological target: T4, ZAP-70(h) (Homo sapiens, UniProt P43403)
T4 sequence (P43403 1-619): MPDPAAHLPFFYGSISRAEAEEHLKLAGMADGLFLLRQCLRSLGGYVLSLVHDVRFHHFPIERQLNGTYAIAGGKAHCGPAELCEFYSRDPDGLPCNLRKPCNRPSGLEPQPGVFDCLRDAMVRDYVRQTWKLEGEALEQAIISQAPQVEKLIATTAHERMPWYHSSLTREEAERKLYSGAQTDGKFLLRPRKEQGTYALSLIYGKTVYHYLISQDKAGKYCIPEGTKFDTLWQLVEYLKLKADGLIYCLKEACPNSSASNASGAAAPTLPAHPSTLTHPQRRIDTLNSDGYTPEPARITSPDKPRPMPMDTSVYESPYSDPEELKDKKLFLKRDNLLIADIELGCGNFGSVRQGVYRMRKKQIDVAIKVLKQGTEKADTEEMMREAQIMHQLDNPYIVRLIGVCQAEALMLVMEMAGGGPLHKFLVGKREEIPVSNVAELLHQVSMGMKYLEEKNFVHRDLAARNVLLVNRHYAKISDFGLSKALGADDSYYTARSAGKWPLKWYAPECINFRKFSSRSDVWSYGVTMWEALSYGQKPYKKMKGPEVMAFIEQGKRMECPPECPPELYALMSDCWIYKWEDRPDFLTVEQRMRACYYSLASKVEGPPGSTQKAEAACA
Procedure, shortened: as §1

ZIPK(h) = ZIPK(h) (Homo sapiens, UniProt O43293)
Procedure, shortened: as §1

Sequence of Flt1(h) (P17948 27-1338): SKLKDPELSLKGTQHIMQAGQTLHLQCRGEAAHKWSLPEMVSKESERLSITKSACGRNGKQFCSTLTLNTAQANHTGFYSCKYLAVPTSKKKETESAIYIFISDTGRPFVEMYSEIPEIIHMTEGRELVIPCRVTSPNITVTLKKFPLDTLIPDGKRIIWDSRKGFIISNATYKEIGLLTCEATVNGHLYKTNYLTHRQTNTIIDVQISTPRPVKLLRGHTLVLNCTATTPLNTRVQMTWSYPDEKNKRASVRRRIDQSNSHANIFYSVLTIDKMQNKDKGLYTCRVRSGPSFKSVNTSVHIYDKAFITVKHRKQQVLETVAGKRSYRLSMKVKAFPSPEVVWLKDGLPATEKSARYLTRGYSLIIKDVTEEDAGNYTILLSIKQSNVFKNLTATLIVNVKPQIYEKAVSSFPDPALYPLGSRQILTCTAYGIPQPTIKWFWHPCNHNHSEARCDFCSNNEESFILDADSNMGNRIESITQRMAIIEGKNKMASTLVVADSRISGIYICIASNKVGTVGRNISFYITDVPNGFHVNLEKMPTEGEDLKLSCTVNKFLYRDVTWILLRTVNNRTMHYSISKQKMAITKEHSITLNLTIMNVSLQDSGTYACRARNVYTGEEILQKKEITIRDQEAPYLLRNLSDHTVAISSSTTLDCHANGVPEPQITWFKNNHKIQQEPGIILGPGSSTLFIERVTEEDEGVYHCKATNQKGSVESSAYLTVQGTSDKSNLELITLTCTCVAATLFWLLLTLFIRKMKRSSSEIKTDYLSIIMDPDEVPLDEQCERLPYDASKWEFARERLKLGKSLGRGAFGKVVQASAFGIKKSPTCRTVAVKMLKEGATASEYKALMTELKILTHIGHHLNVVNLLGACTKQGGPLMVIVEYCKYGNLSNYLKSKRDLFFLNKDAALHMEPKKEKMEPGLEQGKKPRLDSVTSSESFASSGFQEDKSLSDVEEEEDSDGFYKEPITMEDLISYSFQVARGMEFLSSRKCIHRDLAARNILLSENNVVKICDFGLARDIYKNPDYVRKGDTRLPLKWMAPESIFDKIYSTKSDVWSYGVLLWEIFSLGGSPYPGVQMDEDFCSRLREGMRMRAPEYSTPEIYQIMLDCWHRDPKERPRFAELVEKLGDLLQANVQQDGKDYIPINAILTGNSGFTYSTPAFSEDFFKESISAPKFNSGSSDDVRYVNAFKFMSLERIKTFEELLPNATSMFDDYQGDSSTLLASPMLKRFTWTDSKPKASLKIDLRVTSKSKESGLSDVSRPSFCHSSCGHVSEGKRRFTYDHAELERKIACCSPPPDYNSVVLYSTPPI
Sequence of MINK(h) (Q8N4C8 whole entry): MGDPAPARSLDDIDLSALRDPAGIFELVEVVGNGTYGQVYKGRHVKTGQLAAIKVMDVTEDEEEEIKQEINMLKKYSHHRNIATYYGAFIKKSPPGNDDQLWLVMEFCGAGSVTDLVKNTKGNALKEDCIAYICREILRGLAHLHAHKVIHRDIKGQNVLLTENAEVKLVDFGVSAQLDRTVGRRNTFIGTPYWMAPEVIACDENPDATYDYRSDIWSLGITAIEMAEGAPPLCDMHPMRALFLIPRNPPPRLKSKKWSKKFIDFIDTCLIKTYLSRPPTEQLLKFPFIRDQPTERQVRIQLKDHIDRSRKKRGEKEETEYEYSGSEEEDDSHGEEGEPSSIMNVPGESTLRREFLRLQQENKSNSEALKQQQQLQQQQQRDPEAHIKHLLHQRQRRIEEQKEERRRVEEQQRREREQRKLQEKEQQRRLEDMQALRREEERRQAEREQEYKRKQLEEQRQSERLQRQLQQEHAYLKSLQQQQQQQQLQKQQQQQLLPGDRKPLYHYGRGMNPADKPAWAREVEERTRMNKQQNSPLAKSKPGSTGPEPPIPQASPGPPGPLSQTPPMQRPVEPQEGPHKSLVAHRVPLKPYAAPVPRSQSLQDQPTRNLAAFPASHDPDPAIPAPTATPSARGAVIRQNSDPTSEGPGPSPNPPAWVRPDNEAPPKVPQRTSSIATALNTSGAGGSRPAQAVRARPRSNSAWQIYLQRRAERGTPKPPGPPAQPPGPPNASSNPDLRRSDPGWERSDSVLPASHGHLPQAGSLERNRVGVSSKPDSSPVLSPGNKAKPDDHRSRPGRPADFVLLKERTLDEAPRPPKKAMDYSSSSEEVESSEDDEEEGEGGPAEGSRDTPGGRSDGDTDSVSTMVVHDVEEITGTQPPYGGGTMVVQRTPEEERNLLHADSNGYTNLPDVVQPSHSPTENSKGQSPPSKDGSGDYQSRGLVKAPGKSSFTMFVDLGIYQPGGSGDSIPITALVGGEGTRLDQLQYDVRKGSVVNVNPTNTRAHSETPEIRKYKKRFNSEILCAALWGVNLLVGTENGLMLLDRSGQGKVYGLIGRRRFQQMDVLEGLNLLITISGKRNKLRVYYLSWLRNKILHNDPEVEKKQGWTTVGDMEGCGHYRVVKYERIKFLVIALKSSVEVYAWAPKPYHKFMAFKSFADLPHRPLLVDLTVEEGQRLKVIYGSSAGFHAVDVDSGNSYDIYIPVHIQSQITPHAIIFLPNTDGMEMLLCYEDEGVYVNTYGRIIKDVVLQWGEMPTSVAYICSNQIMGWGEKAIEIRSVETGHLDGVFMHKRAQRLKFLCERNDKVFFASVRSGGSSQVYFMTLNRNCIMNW
Sequence of MARK1(h) (Q9P0L2 whole entry): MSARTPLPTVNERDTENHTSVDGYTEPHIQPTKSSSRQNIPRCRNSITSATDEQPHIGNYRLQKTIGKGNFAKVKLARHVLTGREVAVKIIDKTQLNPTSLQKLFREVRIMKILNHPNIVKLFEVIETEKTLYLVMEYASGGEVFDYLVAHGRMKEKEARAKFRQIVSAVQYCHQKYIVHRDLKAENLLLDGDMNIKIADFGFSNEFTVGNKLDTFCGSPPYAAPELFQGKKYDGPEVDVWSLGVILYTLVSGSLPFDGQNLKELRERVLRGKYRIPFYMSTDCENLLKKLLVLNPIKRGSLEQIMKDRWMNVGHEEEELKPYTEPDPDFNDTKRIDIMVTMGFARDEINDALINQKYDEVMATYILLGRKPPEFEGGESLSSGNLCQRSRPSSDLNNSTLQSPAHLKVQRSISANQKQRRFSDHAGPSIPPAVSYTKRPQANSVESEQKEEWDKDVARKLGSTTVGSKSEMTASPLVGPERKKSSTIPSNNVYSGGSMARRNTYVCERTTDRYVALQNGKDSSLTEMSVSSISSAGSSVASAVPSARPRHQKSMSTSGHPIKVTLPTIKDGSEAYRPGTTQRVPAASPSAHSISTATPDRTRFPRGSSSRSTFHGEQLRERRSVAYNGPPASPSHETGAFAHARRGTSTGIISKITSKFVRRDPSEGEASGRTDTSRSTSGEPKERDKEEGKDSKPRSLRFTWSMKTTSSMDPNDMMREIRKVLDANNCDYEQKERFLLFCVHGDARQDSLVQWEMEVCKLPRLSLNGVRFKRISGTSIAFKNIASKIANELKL
Sequence of TrkB(h) (Q16620 32-822): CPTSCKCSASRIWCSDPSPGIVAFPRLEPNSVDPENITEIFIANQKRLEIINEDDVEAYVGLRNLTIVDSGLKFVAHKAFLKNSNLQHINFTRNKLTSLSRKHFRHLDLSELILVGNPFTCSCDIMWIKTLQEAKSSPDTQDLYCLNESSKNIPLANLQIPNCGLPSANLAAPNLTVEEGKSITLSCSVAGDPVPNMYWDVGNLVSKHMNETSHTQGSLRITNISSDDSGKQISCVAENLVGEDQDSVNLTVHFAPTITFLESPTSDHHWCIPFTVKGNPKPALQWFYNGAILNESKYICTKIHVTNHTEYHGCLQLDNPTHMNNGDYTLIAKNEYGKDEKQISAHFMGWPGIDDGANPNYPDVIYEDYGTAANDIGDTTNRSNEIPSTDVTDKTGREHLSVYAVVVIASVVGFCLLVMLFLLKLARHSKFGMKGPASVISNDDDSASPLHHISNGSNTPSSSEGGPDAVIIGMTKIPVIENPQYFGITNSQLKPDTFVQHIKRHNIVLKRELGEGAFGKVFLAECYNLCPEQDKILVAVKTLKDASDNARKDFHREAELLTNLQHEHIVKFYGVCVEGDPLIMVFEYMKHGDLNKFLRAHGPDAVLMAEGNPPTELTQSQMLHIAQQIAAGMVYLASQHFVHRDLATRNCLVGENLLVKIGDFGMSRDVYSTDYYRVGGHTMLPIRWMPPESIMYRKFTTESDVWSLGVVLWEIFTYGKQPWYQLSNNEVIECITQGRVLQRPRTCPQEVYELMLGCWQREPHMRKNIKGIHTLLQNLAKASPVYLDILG
Sequence of GSK3α(h) (P49840 whole entry): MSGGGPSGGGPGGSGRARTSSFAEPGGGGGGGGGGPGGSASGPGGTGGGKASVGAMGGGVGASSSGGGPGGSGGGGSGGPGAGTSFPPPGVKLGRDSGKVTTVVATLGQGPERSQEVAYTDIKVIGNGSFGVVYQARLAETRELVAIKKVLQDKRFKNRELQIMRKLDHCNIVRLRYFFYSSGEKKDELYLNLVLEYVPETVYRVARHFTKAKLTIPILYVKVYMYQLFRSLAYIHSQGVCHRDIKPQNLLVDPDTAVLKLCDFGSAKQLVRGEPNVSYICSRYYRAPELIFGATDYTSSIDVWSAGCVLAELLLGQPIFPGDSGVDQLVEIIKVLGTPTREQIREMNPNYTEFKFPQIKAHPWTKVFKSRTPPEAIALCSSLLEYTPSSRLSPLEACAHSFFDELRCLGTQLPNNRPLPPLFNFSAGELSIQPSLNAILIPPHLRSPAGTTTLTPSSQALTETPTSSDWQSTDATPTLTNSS

Compound | inhibition at 1 µM (AMPKα1(h)) [%] | inhibition at 1 µM (CDK7/cyclinH/MAT1(h)) [%] | inhibition at 1 µM (DYRK2(h)) [%] | inhibition at 1 µM (FGFR1(h)) [%] | inhibition at 1 µM (Flt1(h)) [%] | inhibition at 1 µM (GSK3α(h)) [%] | inhibition at 1 µM (MARK1(h)) [%] | inhibition at 1 µM (MINK(h)) [%] | inhibition at 1 µM (PDGFRβ(h)) [%] | inhibition at 1 µM (PDK1(h)) [%] | inhibition at 1 µM (TAK1(h)) [%] | inhibition at 1 µM (TrkB(h)) [%] | inhibition at 1 µM (ZAP-70(h)) [%] | inhibition at 1 µM (ZIPK(h)) [%]
Nc1n[nH]c2ccc(-c3ccnc4[nH]c(-c5ccccc5)cc34)cc12 [Compound 4] | 23 | 85 | 43 | 84 | 94 | 95 | 84 | 92 | 14 | 25 | 28 | 65 | -8 | -7
Nc1n[nH]c2ccc(-c3ccnc4[nH]c(-c5cccc(OCc6ccccc6)c5)cc34)cc12 [Compound 5r [SU1261]] | -7 | 37 | 14 | 64 | 58 | 74 | 28 | 51 | 1 | 7 | 6 | -37 | -27 | 0
Nc1n[nH]c2ccc(-c3ccnc4[nH]c(-c5ccnc(OCc6ccccc6)c5)cc34)cc12 [Compound 6g [SU1349]] | -5 | 14 | 9 | -4 | 6 | 27 | 17 | 41 | -14 | 18 | 0 | -34 | -22 | 1
